Assay in all cases: inhibition of tumour cell growth, NCI panel, 48 h
The subject of assay [1] is DU-145 prostate.
Assay [2] relates to HS 578T breast.
For assay [3], the system named is T-47D breast.
The subject of assay [4] is NCI-H460 lung.
Assay [5] relates to UACC-62 melanoma.
Assay [6] has as its system EKVX NSCLC.
Assay [7] has as its system A549 NSCLC.
Assay [8] has as its system HCC-2998 colon.

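Step 1: Grow cells in 96-well plates. Step 2: Expose to compound for 48 hours at 5 concentrations. Step 3: Interpolate endpoints linearly; if unreached, use highest concentration. GI50 marks 50% less growth. The concentration for full growth arrest is given as TGI.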 Some results are limits rather than exact numbers.

On to `COc1ccc2cc(C(=O)/C=C/c3cccc(Cl)c3Cl)ccc2c1`, for which the GI50 in assay [1] is 9.57 µM; in assay [2], 50.5 µM; in assay [3], greater than 59 µM; in assay [4], 10.1 µM; in assay [5], 4.08 µM; in assay [6], 20.1 µM. In addition, in assay [7], the GI50 is 10.9 µM. In addition, the TGI in assay [1] is greater than 55.9 µM; in assay [2] it was greater than 100 µM; in assay [3] it was greater than 100 µM; in assay [4] it was greater than 100 µM; in assay [5] it was 28.4 µM; in assay [6], greater than 100 µM. This compound also registered a TGI in assay [7] greater than 100 µM.

With `Cc1ccc(N=C2CSc3nnc(-c4csc5c4CCCC5)n3N2)cc1`, the GI50 in assay [1] is 0.209 µM; in assay [2], 0.168 µM; in assay [4], 0.181 µM; in assay [5], 0.277 µM; in assay [8] it was 1.31 µM; in assay [6], 0.209 µM. Besides, the GI50 in assay [7] was 0.265 µM. In addition, the TGI is greater than 50 µM in assay [1]; 40.2 µM in assay [2]; greater than 50 µM in assay [4]; greater than 50 µM in assay [5]; greater than 50 µM in assay [8]; greater than 50 µM in assay [6]. In addition, the TGI in assay [7] was greater than 50 µM.

Turning to `Cc1ccc(S(=O)(=O)Oc2ccc3c4c(c(=O)oc3c2)CCCCC4)cc1`, the GI50 in assay [1] was greater than 100 µM; in assay [2], 96.2 µM; in assay [3], 4.37 µM; in assay [5], 5.72 µM; in assay [8], greater than 100 µM; in assay [7], greater than 100 µM. Further, the TGI in assay [1], in assay [2], in assay [3], in assay [5], in assay [8] and in assay [7] was greater than 100 µM each time.

Consider `COc1ccc(C2NCCc3c2[nH]c2ccccc32)cc1CN1CCN(c2ccc(F)cc2)CC1` (stereo not given), for which the GI50 is 2.76 µM in assay [1]; 1.6 µM in assay [2]; 1.88 µM in assay [3]; 1.85 µM in assay [4]; 1.8 µM in assay [5]; 1.61 µM in assay [8]. The GI50 in assay [7] is 2.9 µM. Moreover, the TGI amounted to 7.81 µM in assay [1]; 3.75 µM in assay [2]; 3.94 µM in assay [3]; 3.49 µM in assay [4]; 3.32 µM in assay [5]; 3.33 µM in assay [8]. Moreover, in assay [7], the TGI amounted to 9.29 µM.

On to `COc1cc2c3c(n(CCN)c(=O)c2cc1OC)-c1cc2c(cc1C3=O)OCO2`, for which the GI50 in assay [1] is 0.0401 µM; in assay [2] it was 1.85 µM; in assay [3], 0.143 µM; in assay [4], less than 0.01 µM; in assay [5] it was 0.134 µM; in assay [6], 1.59 µM. In assay [7], the GI50 was 0.506 µM. The TGI came to 1.13 µM in assay [1]; 4.51 µM in assay [2]; 1.36 µM in assay [3]; 3.24 µM in assay [4]; 1.51 µM in assay [5]; 3.97 µM in assay [6]. The same compound returned a TGI in assay [7] greater than 23.7 µM.

As for `CN(C)CCNC(=O)c1cccc2cc3ccccc3nc12`, the GI50 was 1.8 µM in assay [1]; 1.6 µM in assay [2]; 1.95 µM in assay [3]; 0.426 µM in assay [4]; 1.42 µM in assay [5]; 1.63 µM in assay [8]. The GI50 in assay [6] is 2.25 µM. Also, the TGI was 4.37 µM in assay [1]; 10.2 µM in assay [2]; 10.6 µM in assay [3]; 1.98 µM in assay [4]; 3.25 µM in assay [5]; 5.9 µM in assay [8]. The compound further showed a TGI in assay [6] of 7.81 µM.

With `NCCNCC(O)CO` (stereo not given), the TGI in assay [1], in assay [2], in assay [3], in assay [4], in assay [5] and in assay [6] was greater than 100 µM each time. In assay [7], this compound came in with a TGI greater than 100 µM.

In the case of `CCCCn1c2c(c3ccccc3c1=O)C(=O)c1ccccc1-2`, the TGI in assay [1], in assay [2], in assay [3], in assay [5], in assay [6] and in assay [7] was greater than 100 µM in each case.

Turning to `COc1cc2c3c(n(CCCN4CCN(C)CC4)c(=O)c2cc1OC)-c1cc2c(cc1C3=O)OCO2`, the GI50 in assay [1] was 10.6 µM; in assay [2], 13.9 µM; in assay [4], 5.8 µM; in assay [5], 15.1 µM; in assay [6], 17.7 µM; in assay [7], 18.7 µM. The TGI in assay [1] was 27.5 µM; in assay [2], 73 µM; in assay [4], 28.2 µM; in assay [5], 34.2 µM; in assay [6] it was 41.1 µM; in assay [7], 84.2 µM.

For `O=c1cccc(C#Cc2ccccc2)o1`, the GI50 was 7.74 µM in assay [1]; 6.5 µM in assay [2]; 8.67 µM in assay [3]; 3.91 µM in assay [4]; 6.32 µM in assay [5]; 5.21 µM in assay [6]. Further, the GI50 in assay [7] is 11.1 µM. The TGI in assay [1] is greater than 68.6 µM; in assay [2], 25.9 µM; in assay [3] it was 46 µM; in assay [4], greater than 100 µM; in assay [5], 19.7 µM; in assay [6] it was 32.1 µM. The same compound displayed a TGI in assay [7] greater than 90.9 µM.

With `NC1=NC(c2ccccc2)N=C(Nc2ccccc2)N1` (stereo not given), the GI50 in assay [1] was greater than 100 µM; in assay [2], 68.5 µM; in assay [3], greater than 100 µM; in assay [4] it was greater than 100 µM; in assay [5] it was greater than 100 µM; in assay [6], greater than 100 µM. In addition, in assay [7], the GI50 was greater than 100 µM. In addition, the TGI in assay [1], in assay [2], in assay [3], in assay [4], in assay [5] and in assay [6] was greater than 100 µM in each case. In addition, the TGI in assay [7] was greater than 100 µM.

(Values after PubChem BioAssay (NCI).)
